The results in this text go back to PubChem BioAssay (NCI).

Common to all, as to experiment: inhibition of tumour cell growth, NCI panel, 48 h
Assay [1] has as its system OVCAR-8 ovarian.
Assay [2] relates to U251 CNS.
Assay [3] concerns HL-60(TB) leukemia.
Assay [4] relates to UACC-257 melanoma.
The test system of assay [5] is ACHN renal.
The test system of assay [6] is K-562 leukemia.
Assay [7] relates to UO-31 renal.
For assay [8], the system named is UACC-62 melanoma.
For assay [9], the system named is NCI/ADR-RES ovarian.
The test system of assay [10] is NCI-H226 lung.

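48-hour exposure; five concentrations; linearly interpolated endpoints. GI50 marks 50% less growth. TGI: total growth inhibition.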

As for `OC(c1cccnc1Cl)c1nc2ccccc2c2ccnc(Cl)c12` (stereo not given), the TGI in assay [1] is above 100 µM; in assay [2], above 100 µM; in assay [3] it was 12.5 µM; in [4], above 100 µM; in assay [5], above 100 µM; in assay [6] it was above 100 µM. Moreover, the TGI was above 100 µM in assay [7], 23.7 µM in [8] and above 100 µM in [9].

Turning to `COC(=O)C(=O)Cc1nc2ccccc2o1`, the TGI in [2], in assay [3], in assay [4], in assay [5], in assay [6] and in assay [7] was above 100 µM in each case. For the same compound, the TGI in assay [8] is above 100 µM.

Consider `CCN(CC)C1Oc2cc3c(cc2C(c2cccc(OC)c2OC)C1C)OCO3` (stereo not given), for which the TGI is 22.6 µM in assay [1]; 9.24 µM in assay [10]; 32 µM in assay [2]; 4.63 µM in [3]; 24.9 µM in assay [4]; 29.5 µM in assay [5]. Besides, the TGI in [6] was 14.4 µM; in assay [7], 40.5 µM; in [8] it was 30.1 µM.

For the compound `O=C(O)c1ccccc1N=Nc1c(O)c(S(=O)(=O)O)cc2cc(S(=O)(=O)O)ccc12`, the TGI in [1], in assay [2], in assay [3], in assay [4], in assay [5] and in [6] was above 100 µM each time. For the same compound, the TGI in assay [7] and in assay [8] was above 100 µM in each case.

In the case of `COc1cc(Nc2nc3cc(C(F)(F)F)ccc3n3cccc23)cc(OC)c1OC`, the TGI in assay [1], in [2], in [3], in assay [4], in assay [5] and in assay [6] was above 100 µM each time. In addition, the TGI in [7], in [8] and in assay [9] was above 100 µM throughout.

For the compound `N#CCCC1(CCC#N)CCCCCCCCC(CCC#N)(CCC#N)C(O)C1O` (stereo not given), the TGI in assay [1], in [10], in assay [2], in assay [4], in assay [5] and in assay [6] was above 100 µM throughout. In addition, the TGI in assay [8] and in assay [9] was above 100 µM each time.

For `COC(=O)Cc1c(-c2c(CC(=O)OC)c3ccccc3n2C2OC(COC(C)=O)C(OC(C)=O)C(OC(C)=O)C2OC(C)=O)[nH]c2ccccc12` (stereo not given), the TGI in assay [2], in [4], in assay [7] and in assay [8] was above 100 µM throughout.

For `O=NN(CCF)C(=O)NC1CCSCC1`, the TGI in assay [1] is above 100 µM; in assay [2], above 100 µM; in assay [3], above 100 µM; in assay [4], above 100 µM; in assay [6] it was above 31.6 µM; in assay [7] it was above 100 µM. Also, the TGI in assay [8] and in [9] was above 100 µM throughout.

In the case of `COc1cccc(C2c3cc4c(cc3OC3COC(=O)C32)OCO4)c1OC` (stereo not given), the TGI in assay [1], in assay [10], in assay [3], in [4], in [5] and in assay [7] was above 100 µM in each case. For the same compound, the TGI in assay [8] and in assay [9] was above 100 µM in each case.

For the compound `CCC1C(c2ccccc2O)c2cc3c(cc2OC1N1CCOCC1)OCO3` (stereo not given), the TGI in assay [1] came out at 46.2 µM; in [10] it was 36.3 µM; in [2], 26.4 µM; in assay [3] it was 38.8 µM; in assay [4] it was 31.6 µM; in assay [5] it was 26 µM. The TGI in assay [6] was determined as 31.5 µM; in [7], 27 µM; in assay [8], 27.1 µM.

Regarding `COc1ccc(Nc2ccc([N+](=O)[O-])cc2[N+](=O)[O-])cc1CN(CCCl)CCCl`, the GI50 in [1] is 3.02 µM; in [10], 3.49 µM; in assay [2] it was 3.11 µM; in assay [3], 1.88 µM; in assay [4], 5.31 µM; in [5], 1.63 µM. Further, in assay [6], the GI50 was 2.47 µM. Further, the TGI is above 100 µM in assay [1]; 21.4 µM in [10]; 30 µM in assay [2]; 7.26 µM in assay [3]; 34.2 µM in [4]; 5.94 µM in assay [5]. In [6], this compound yielded a TGI of 18.9 µM.

Turning to `CC(=O)OCC1OC(OCCCOP(=S)(OCCC#N)OCC2OC(n3ccc(N)nc3=O)C(OC(=O)c3ccccc3)C2OC(=O)c2ccccc2)C(OC(C)=O)C(OC(C)=O)C1OC(C)=O` (stereo not given), the TGI in assay [1], in [10], in [2], in assay [4], in [5] and in assay [6] was above 100 µM each time. Also, the TGI in [7], in assay [8] and in assay [9] was above 100 µM each time.

For `Cc1cnc2c(c1C)C(=O)c1ccccc1C2=O`, the TGI in assay [1], in [10], in [2], in [4], in assay [5] and in assay [6] was above 100 µM in each case. The TGI in assay [7] and in [9] was above 100 µM each time.

As for `O=C1CCCC/C1=C\c1ccc(Cl)c(Cl)c1`, the TGI in assay [1] was found to be 78 µM; in [2] it was 30.6 µM; in assay [3], 48.9 µM; in assay [5], 33.5 µM; in assay [6], 48 µM; in [7] it was 34 µM. In [8], this compound gave a TGI of 63.6 µM.

On to `CCCCCCCCCCCC[N+](CCCCCCCCCCCC)=C1SCCS1`, for which the TGI in assay [1] stood at 8.33 µM; in assay [10], 28.2 µM; in [2], 13.7 µM; in [3], 12.1 µM; in assay [4] it was 21.3 µM; in [5] it was 25.1 µM. Further, the figures for the TGI in assay [7] and in assay [8] were 26.2 µM and 22.9 µM, respectively.

On to `COc1cc(O)c2c(=O)c(OC)c(-c3ccc(OC)c(OC)c3)oc2c1`, for which the GI50 is above 100 µM in assay [1]; above 100 µM in assay [5]; above 100 µM in assay [6]; above 100 µM in [8]; 62.7 µM in [9]. The TGI in assay [1], in assay [2], in [3], in [4], in assay [5] and in assay [6] was above 100 µM throughout. Also, the TGI in assay [7], in [8] and in assay [9] was above 100 µM throughout.

Turning to `CCCn1c(=O)c(N2CCN(c3ccccc3)CC2)nc2sc3ccccc3c21`, the TGI in [1], in assay [2], in assay [3], in assay [4], in [5] and in assay [7] was above 100 µM in each case. For the same compound, the TGI in assay [8] and in assay [9] was above 100 µM in each case.

Take `O=C1NC2CCCCCC2C12CCCCC2` (stereo not given): the TGI in assay [10], in assay [2], in assay [3], in [4], in assay [5] and in [6] was above 100 µM each time. The TGI in [7] and in [8] was above 100 µM in each case.

For the compound `NC(Cc1ccc(S(=O)(=O)O)cc1)C(=O)NC(Cc1ccc(S(=O)(=O)O)cc1)C(=O)NC(Cc1ccc(S(=O)(=O)O)cc1)C(=O)NC(Cc1ccc(S(=O)(=O)O)cc1)C(=O)O` (stereo not given), the TGI in [1], in assay [10], in assay [2], in assay [4], in [5] and in assay [7] was above 100 µM throughout. Besides, the TGI in assay [8] and in [9] was above 100 µM throughout.

On to `COC(=O)C1CCC(=O)N1C(c1ccc2c(c1)OCO2)c1cc(OC)c(OC)c(OC)c1` (stereo not given), for which the TGI in [1], in assay [10], in assay [2], in [3], in assay [4] and in [5] was above 100 µM each time. Besides, the TGI in [6], in [7] and in assay [8] was above 100 µM in each case.

As to `Cc1cc2c(cc1C)[n+](=O)c(C(=O)c1ccccc1)c(C(F)(F)F)n2[O-]`, the TGI in assay [1] was above 26.8 µM; in assay [2], 16.4 µM; in assay [3], 5.73 µM; in assay [4], 14.6 µM; in [5], 8.29 µM; in [6] it was 9.14 µM. Besides, the values for the TGI in [7], in assay [8] and in assay [9] were 4.66 µM, 7.72 µM and above 26.2 µM, respectively.

Take `COc1ccc(CNc2cc(=O)n(C)c(=O)[nH]2)cc1`: the TGI in assay [1], in assay [10], in assay [2], in assay [4], in assay [5] and in assay [6] was above 100 µM throughout. In addition, the TGI in [7], in assay [8] and in [9] was above 100 µM each time.
